Measured values published in ChEMBL document CHEMBL3808348, “Rational Design, Synthesis, and Biological Evaluation of 7-Azaindole Derivatives as Potent Focused Multi-Targeted Kinase Inhibitors” (J Med Chem, 2016).

Tests used:
[1] = target: Tyrosine-protein kinase Tec (Homo sapiens) (UniProt P42680); settings: 100 nM
Description: Inhibition of His-tagged full length human recombinant TEC expressed in baculovirus using Fluorescein-Poly GT as substrate at 100 nM

[2] = target: Inhibitor of nuclear factor kappa-B kinase subunit alpha (Homo sapiens) (UniProt O15111); settings: 100 nM
Description: Inhibition of His-tagged full length human recombinant IKKalpha expressed in baculovirus using Fluorescein-IKK as substrate at 100 nM

[3] = target: Serine/threonine-protein kinase pim-1 (Homo sapiens) (UniProt P11309); settings: 100 nM
Chain of Serine/threonine-protein kinase pim-1 (Homo sapiens) (P11309 whole entry, looked up): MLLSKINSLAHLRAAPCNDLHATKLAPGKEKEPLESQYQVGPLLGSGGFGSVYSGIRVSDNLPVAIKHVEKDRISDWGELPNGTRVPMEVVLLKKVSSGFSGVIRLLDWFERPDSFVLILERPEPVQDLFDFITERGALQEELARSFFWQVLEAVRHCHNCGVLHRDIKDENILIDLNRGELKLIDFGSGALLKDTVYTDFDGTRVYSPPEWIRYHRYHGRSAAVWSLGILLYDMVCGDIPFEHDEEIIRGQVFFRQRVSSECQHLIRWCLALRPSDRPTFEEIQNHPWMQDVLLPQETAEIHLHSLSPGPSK
Description: Inhibition of His-tagged full length human recombinant PIM1 expressed in baculovirus using Fluorescein-CREBtide as substrate at 100 nM

[4] = target: Mitogen-activated protein kinase 1 (Homo sapiens) (UniProt P28482); settings: 100 nM
Description: Inhibition of GST-tagged full length human recombinant ERK2 expressed in Escherichia coli using GFP-AT F2 as substrate at 100 nM

HepG2 = test: Antiproliferative activity against human HepG2 cells after 72 hrs by MTT assay; format: functional, cell-based; settings: HepG2, 72 h
[5] = target: T1, Platelet-derived growth factor receptor alpha (Homo sapiens, UniProt P16234); test: Inhibition of full length GST-tagged human recombinant PDGFRalpha expressed in baculovirus using Fluorescein-Poly GT as substrate
T1 sequence (P16234 whole entry): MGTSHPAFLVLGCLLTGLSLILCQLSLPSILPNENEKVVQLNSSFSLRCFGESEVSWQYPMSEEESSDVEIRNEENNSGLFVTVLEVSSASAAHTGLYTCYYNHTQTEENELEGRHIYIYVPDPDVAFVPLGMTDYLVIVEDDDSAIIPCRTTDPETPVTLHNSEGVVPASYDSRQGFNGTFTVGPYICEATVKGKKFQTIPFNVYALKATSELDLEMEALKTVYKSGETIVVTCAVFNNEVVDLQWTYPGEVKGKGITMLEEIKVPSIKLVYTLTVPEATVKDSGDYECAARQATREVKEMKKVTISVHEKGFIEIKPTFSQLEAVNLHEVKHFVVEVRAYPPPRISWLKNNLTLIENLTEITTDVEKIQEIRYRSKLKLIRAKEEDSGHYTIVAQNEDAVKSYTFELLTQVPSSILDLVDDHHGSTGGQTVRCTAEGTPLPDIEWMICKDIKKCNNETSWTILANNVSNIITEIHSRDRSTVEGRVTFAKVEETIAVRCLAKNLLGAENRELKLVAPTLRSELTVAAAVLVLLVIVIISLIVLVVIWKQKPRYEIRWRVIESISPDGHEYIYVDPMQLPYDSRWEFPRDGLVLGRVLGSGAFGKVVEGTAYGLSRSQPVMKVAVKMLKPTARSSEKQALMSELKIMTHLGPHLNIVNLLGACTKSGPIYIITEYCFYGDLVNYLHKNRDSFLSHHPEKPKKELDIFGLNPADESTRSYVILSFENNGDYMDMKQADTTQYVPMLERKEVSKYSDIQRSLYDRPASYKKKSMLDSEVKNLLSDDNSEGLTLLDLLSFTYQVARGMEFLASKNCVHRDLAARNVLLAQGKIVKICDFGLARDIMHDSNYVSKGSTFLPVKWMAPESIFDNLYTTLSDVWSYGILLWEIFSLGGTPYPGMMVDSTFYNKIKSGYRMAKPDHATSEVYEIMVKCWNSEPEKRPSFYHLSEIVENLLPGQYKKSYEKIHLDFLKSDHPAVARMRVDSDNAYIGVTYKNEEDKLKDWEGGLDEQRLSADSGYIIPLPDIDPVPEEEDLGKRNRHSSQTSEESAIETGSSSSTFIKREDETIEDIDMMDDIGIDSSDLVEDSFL

[6] = Tmax in Swiss mouse plasma at 20 mg/kg, po by LC/MS/MS analysis; format: ADME, organism-based
NCI-H1975 = test: Antiproliferative activity against human NCI-H1975 cells harboring EGFR L858R/T790M double mutant after 72 hrs by MTT assay; format: functional, cell-based; settings: NCI-H1975, 72 h
[7] = AUC(0 to infinity) in Swiss mouse plasma at 2 mg/kg, iv by LC/MS/MS analysis; format: ADME, organism-based; parameters: dose 2 mg/kg, route intravenous, time infinity
[8] = target: Focal adhesion kinase 1 (Homo sapiens) (UniProt Q05397); settings: 100 nM
Chain of Focal adhesion kinase 1 (Homo sapiens) (Q05397 2-1052 limits assumed): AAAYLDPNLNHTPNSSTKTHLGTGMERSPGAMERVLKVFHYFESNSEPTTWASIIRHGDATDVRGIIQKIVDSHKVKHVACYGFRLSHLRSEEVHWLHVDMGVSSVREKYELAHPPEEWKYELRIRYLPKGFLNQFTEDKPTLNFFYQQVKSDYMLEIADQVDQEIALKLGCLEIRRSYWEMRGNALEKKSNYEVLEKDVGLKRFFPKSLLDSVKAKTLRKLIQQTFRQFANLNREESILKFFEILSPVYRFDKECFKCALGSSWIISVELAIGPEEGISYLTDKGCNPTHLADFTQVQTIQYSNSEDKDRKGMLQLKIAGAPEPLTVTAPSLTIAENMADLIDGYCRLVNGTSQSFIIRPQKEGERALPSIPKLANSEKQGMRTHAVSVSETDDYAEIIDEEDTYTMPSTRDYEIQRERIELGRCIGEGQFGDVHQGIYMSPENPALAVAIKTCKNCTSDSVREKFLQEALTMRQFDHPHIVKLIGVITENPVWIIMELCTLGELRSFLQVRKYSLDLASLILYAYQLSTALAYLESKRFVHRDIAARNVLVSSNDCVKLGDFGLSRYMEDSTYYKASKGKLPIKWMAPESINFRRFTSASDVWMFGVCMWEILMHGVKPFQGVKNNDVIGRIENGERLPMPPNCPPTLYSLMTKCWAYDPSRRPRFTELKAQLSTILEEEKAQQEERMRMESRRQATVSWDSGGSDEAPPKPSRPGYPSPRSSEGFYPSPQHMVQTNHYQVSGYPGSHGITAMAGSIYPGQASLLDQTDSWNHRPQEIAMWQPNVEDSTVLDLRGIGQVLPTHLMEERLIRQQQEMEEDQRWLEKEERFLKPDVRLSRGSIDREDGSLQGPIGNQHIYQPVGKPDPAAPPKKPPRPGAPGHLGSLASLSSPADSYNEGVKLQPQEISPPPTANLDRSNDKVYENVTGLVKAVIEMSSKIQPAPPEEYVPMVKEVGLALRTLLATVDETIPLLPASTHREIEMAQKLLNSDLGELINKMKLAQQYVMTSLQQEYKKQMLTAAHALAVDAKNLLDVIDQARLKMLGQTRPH
Description: Inhibition of full length GST-tagged human recombinant FAK expressed in baculovirus using Fluorescein-Poly GT as substrate at 100 nM

[9] = target: T2, Epidermal growth factor receptor (Homo sapiens, UniProt P00533); test: Inhibition of GST-tagged human recombinant EGFR (668 to1210 residues) expressed in baculovirus using Fluorescein-Poly GT as substrate at 100 nM
T2 sequence (P00533 whole entry, the tested form may be a part): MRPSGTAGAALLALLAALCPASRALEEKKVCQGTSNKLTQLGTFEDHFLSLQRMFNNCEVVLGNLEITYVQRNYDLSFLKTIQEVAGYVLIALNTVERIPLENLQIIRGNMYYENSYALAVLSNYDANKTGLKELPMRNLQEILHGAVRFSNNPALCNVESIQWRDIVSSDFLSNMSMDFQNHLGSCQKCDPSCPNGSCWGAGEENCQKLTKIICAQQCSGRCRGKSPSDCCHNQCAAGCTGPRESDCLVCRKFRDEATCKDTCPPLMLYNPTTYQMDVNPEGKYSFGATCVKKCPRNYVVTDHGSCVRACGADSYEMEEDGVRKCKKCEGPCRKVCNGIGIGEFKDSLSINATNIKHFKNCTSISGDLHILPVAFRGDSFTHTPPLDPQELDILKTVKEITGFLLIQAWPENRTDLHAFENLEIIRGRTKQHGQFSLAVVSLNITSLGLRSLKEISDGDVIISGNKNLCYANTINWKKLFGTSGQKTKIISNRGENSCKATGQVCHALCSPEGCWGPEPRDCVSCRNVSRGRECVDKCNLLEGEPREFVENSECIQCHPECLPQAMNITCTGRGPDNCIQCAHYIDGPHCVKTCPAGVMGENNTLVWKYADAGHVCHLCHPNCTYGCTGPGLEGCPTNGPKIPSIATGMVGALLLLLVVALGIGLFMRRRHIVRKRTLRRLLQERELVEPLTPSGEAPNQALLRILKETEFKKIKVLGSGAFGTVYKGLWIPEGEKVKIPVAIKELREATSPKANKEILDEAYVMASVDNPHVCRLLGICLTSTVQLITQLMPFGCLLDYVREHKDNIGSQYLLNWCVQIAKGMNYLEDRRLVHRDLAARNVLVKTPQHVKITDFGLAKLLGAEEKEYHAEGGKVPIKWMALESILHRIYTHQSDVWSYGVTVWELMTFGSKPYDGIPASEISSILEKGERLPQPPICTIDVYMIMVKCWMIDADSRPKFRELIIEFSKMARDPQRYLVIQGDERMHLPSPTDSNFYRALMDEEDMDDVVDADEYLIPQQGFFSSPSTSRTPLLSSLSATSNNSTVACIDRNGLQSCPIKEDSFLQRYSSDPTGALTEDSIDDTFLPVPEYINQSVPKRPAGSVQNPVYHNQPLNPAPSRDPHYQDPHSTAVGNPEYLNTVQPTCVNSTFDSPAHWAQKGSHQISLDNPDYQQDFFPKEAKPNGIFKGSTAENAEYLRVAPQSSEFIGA

PBMC = test: Hematotoxicity in human PHA/IL2-stimulated PBMC; format: cell-based
[10] = target: Non-receptor tyrosine-protein kinase TYK2 (Homo sapiens) (UniProt P29597); settings: 100 nM
Chain of Non-receptor tyrosine-protein kinase TYK2 (Homo sapiens) (P29597 whole entry): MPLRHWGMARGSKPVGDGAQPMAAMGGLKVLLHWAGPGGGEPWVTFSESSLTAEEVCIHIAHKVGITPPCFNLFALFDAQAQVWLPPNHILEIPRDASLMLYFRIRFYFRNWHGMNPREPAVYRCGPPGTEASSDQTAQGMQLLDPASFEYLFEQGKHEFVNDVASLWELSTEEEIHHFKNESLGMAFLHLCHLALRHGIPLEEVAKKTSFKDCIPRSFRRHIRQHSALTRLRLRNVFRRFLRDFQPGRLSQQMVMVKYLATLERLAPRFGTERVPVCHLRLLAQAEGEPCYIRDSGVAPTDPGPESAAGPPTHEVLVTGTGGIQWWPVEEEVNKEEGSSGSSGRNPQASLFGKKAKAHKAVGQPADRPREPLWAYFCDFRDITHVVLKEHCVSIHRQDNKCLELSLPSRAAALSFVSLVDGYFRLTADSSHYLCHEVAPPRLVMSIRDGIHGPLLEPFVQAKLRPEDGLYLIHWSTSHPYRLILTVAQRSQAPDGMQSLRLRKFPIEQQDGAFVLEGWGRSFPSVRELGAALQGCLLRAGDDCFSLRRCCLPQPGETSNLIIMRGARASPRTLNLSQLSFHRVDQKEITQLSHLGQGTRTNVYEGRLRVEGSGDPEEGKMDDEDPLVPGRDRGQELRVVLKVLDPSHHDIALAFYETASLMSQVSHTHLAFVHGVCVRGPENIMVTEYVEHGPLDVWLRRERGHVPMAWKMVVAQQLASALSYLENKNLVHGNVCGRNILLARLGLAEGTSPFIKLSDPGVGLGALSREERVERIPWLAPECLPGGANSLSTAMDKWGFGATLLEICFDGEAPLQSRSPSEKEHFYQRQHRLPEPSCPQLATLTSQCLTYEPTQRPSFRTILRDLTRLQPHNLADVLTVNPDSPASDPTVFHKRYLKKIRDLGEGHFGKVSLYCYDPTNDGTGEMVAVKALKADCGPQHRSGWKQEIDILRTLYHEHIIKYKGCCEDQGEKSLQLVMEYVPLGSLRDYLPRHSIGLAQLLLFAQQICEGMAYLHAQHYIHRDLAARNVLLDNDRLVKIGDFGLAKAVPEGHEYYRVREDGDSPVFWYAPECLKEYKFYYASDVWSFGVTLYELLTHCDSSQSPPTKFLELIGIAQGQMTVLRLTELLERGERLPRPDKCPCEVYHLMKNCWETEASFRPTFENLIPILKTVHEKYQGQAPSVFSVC
Description: Inhibition of GST-tagged human recombinant TYK2 (832 to 1187 residues) expressed in baculovirus using Fluorescein-Poly GT as substrate at 100 nM

[11] = Antiproliferative activity against human Caki2 cells after 72 hrs by MTT assay; format: functional, cell-based; settings: CAKI-2, 72 h
[12] = system: Tyrosine-protein kinase ABL1 (Homo sapiens), P00519 [E255K]; test: Inhibition of His-tagged full length human recombinant ABL E255K mutant expressed in baculovirus using Fluorescein-Poly GT as substrate at 100 nM
[13] = target: Serine/threonine-protein kinase PAK 2 (Homo sapiens) (UniProt Q13177); settings: 100 nM
Description: Inhibition of GST-tagged full length human recombinant PAK2 expressed in baculovirus at 100 nM

[14] = target: Ephrin type-A receptor 2 (Homo sapiens) (UniProt P29317); settings: 100 nM
Description: Inhibition of GST-tagged human recombinant EPHA2 (560 to 976 residues) expressed in baculovirus using Fluorescein-Poly GT as substrate at 100 nM

[15] = target: Tyrosine-protein kinase Lyn (Homo sapiens, UniProt P07948); test: Inhibition of GST-tagged full length human recombinant LYNA expressed in baculovirus using Fluorescein-Poly GT as substrate
[16] = target: Cyclin-dependent kinase 5/CDK5 activator 1 (Homo sapiens) (UniProt Q00535+Q15078); settings: 100 nM
Description: Inhibition of CDK5/p25 (unknown origin) at 100 nM

[17] = target: Receptor-type tyrosine-protein kinase FLT3 (Homo sapiens) (UniProt P36888); settings: 100 nM
Description: Inhibition of His-tagged human recombinant FLT3 (564 to 958 residues) expressed in baculovirus using Fluorescein-Poly GT as substrate at 100 nM

[18] = target: 3-phosphoinositide-dependent protein kinase 1 (Homo sapiens) (UniProt O15530); settings: 100 nM
Description: Inhibition of PDK1 (unknown origin) at 100 nM

[19] = target: Aurora kinase B (Homo sapiens) (UniProt Q96GD4); settings: 100 nM
Description: Inhibition of full length His-tagged human recombinant Aurora B expressed in baculovirus using Fluorescein-CREBtide as substrate at 100 nM

[20] = target: Tyrosine-protein kinase ABL1 (Homo sapiens, UniProt P00519); test: Inhibition of His-tagged full length human recombinant wild type ABL expressed in baculovirus using Fluorescein-Poly GT as substrate
[21] = target: T1, Platelet-derived growth factor receptor alpha; settings: 100 nM
Description: Inhibition of GST-tagged human recombinant PDGFRalpha (550 to 1089 residues) expressed in baculovirus using Fluorescein-Poly GT as substrate at 100 nM

Bcr/Abl fusion protein [22] = target: Bcr/Abl fusion protein (Homo sapiens, UniProt P00519); format: cell-based, BaF3
Description: Inhibition of human wild type BCR-ABL expressed in mouse BAF3 cells assessed as inhibition of cell proliferation after 72 hrs by MTT assay

[23] = target: Phosphatidylinositol 4,5-bisphosphate 3-kinase catalytic subunit alpha isoform (Homo sapiens) (UniProt P42336); settings: 100 nM
Description: Inhibition of PI3Kalpha (unknown origin) at 100 nM

[24] = target: Vascular endothelial growth factor receptor 2 (Homo sapiens) (UniProt P35968); settings: 100 nM
Description: Inhibition of His-tagged human recombinant VEGFR2 (789 to 1356 residues) expressed in baculovirus using Fluorescein-Poly GT as substrate at 100 nM

[25] = target: Tyrosine-protein kinase JAK3 (Homo sapiens) (UniProt P52333); settings: 100 nM
Description: Inhibition of GST-tagged human recombinant JAK3 (781 to 1124 residues) expressed in baculovirus using GFP-ST AT1 as substrate at 100 nM

[26] = Antiproliferative activity against human PC3 cells after 72 hrs by MTT assay; format: functional, cell-based; settings: PC-3, 72 h
[27] = target: Tyrosine-protein kinase ZAP-70 (Homo sapiens) (UniProt P43403); settings: 100 nM
Description: Inhibition of His-tagged full length human recombinant ZAP70 expressed in baculovirus using Fluorescein-Poly GT as substrate at 100 nM

MDA-MB-231 = test: Antiproliferative activity against human MDA-MB-231 cells after 72 hrs by MTT assay; format: functional, cell-based; settings: MDA-MB-231, 72 h
[28] = target: Serine/threonine-protein kinase D2 (Homo sapiens) (UniProt Q9BZL6); settings: 100 nM
Description: Inhibition of GST-tagged full length human recombinant PKD2 expressed in baculovirus using Fluorescein-CREBtide as substrate at 100 nM

[29] = target: Dual specificity mitogen-activated protein kinase kinase 1 (Homo sapiens) (UniProt Q02750); settings: 100 nM
Description: Inhibition of full length His-tagged human recombinant MEK1 expressed in baculovirus expression system at 100 nM

[30] = target: Tyrosine-protein kinase CSK (Homo sapiens) (UniProt P41240); settings: 100 nM
Description: Inhibition of His-tagged full length human recombinant CSK expressed in Escherichia coli using Fluorescein-Poly GT as substrate at 100 nM

[31] = target: Rho-associated protein kinase 2 (Homo sapiens) (UniProt O75116); settings: 100 nM
Description: Inhibition of GST-tagged human recombinant ROCK2 ( 1 to 552 residues) expressed in baculovirus using Fluorescein-PKC as substrate at 100 nM

[32] = Antiproliferative activity against human BxPC3 cells after 72 hrs by MTT assay; format: functional, cell-based; settings: BXPC-3, 72 h
[33] = target: Tyrosine-protein kinase HCK (Homo sapiens, UniProt P08631); test: Inhibition of GST-tagged full length human recombinant HCK expressed in baculovirus using Fluorescein-Poly GT as substrate
[34] = target: Serine/threonine-protein kinase mTOR (Homo sapiens) (UniProt P42345); settings: 100 nM
Description: Inhibition of GST-tagged human recombinant mTOR (1360 to 2549 residues) expressed in baculovirus using GFP-4E -BP1 as substrate at 100 nM

[35] = target: Ephrin type-A receptor 4 (Homo sapiens) (UniProt P54764); settings: 100 nM
Description: Inhibition of GST-tagged human recombinant EPHA4 (616 to 887 residues) expressed in baculovirus using Fluorescein-Poly GT as substrate at 100 nM

Bcr/Abl fusion protein [36] = target: Bcr/Abl fusion protein (Homo sapiens, UniProt P00519, T315I); format: cell-based, BaF3
Description: Inhibition of human BCR-ABL T315I mutant expressed in mouse BAF3 cells assessed as inhibition of cell proliferation after 72 hrs by MTT assay

[37] = AUC(0 to infinity) in Swiss mouse plasma at 20 mg/kg, po by LC/MS/MS analysis; format: ADME, organism-based; parameters: dose 20 mg/kg, time infinity, route oral
[38] = target: T2, Epidermal growth factor receptor; test: Inhibition of GST-tagged human recombinant EGFR (668 to1210 residues) expressed in baculovirus using Fluorescein-Poly GT as substrate
[39] = target: Leukocyte tyrosine kinase receptor (Homo sapiens) (UniProt P29376); settings: 100 nM
Description: Inhibition of GST-tagged human recombinant TYK1 (450 to 864 residues) expressed in baculovirus using Fluorescein-Poly GT as substrate at 100 nM

[40] = target: Receptor tyrosine-protein kinase erbB-2 (Homo sapiens) (UniProt P04626); settings: 100 nM
Description: Inhibition of His-tagged human recombinant ERBB2 (676 to 1225 residues) expressed in baculovirus using Fluorescein-Poly GT as substrate at 100 nM

SMILES: COC(=O)c1cc2cc(NCc3cc(NC(=O)c4cc(-n5cnc(C)c5)cc(C(F)(F)F)c4)ccc3C)cnc2[nH]1
- inhibition [1]: < 40%
- inhibition [2]: < 40%
- inhibition [3]: < 40%
- inhibition [4]: < 40%
- EC50 (HepG2): 38 nM
- IC50 [5]: 50 nM
- Tmax [6]: 30 min
- EC50 (NCI-H1975): 104 nM
- AUC(0-inf) [7]: 558 ng·h/mL
- inhibition [8]: < 40%
- inhibition [9]: 82%
- EC50 (PBMC): 1200 nM
- inhibition [10]: < 40%
- EC50 [11]: 22 nM
- inhibition [12]: > 80%
- inhibition [13]: < 40%
- inhibition [14]: < 40%
- IC50 [15]: 37 nM
- inhibition [16]: < 40%
- inhibition [17]: < 40%
- inhibition [18]: < 40%
- inhibition [19]: < 40%
- IC50 [20]: 6 nM
- inhibition [21]: < 40%
- EC50 (Bcr/Abl fusion protein [22]): 0.04 nM
- inhibition [23]: < 40%
- inhibition [24]: < 40%
- inhibition [25]: < 40%
- EC50 [26]: 152 nM
- inhibition [27]: < 40%
- EC50 (MDA-MB-231): 158 nM
- inhibition [28]: < 40%
- inhibition [29]: < 40%
- inhibition [30]: < 40%
- inhibition [31]: < 40%
- EC50 [32]: 35 nM
- IC50 [33]: 22 nM
- inhibition [34]: < 40%
- inhibition [35]: < 40%
- EC50 (Bcr/Abl fusion protein [36]): 1.8 nM
- AUC(0-inf) [37]: 3030 ng·h/mL
- IC50 [38]: 15 nM
- inhibition [39]: < 40%
- inhibition [40]: < 40%
